Consider one molecule from patent US12702715B2, “Targeted RNA degradation allows precision repurposing of protein-targeted small molecule medicines to RNA” (University of Florida Research Foundation, Incorporated, priority 2020, dated 2026).

Entries after “also recorded” stand apart in the source; their conditions may differ.

Assay type in all cases: cell-based, human
The test system of test [1] is miR-21. Put plainly: RT-qPCR of mature miR-21 levels in MDA-MB-231 cells. As to the method: Cell Culture. Cells were cultured at 37° C. and 5% CO2. […] For compound treatment, compound stocks either in DMSO or water were diluted in growth medium and added to cells for the indicated time. […] After transfection, the medium was replaced with growth medium containing the compound of interest, prepared as described above. The RNase L-targeting siRNA or a control siRNA was transfected with Lipofectamine RNAiMAX reagent (Invitrogen) per the manufacturer's protocol.
(§1) RNA Isolation and Quantitative Real-Time PCR (RT-qPCR). After treatment, total RNA was extracted and purified by using the Zymo Quick-RNA mini prep kit per the manufacturer's protocol. Reverse Transcription (RT) for mature miRNAs as well as pri- and pre-miR-21 was completed on 200 ng of RNA by using a miScript 11 RT kit (QIAGEN) according to manufacturer's protocol. RT of mRNAs was performed by using QScript kit (Quanta Bio). An Applied Biosystems QS5 384-well PCR system was used to complete qPCR experiments using Power Sybr Green Mater Mix (Life Technologies) as described previously^6.
(In general: Real-time PCR tracks product formation cycle by cycle.)

In test [2] the test system is pre-miR-21. Nature of the test: RT-qPCR of pre-miR-21 levels in MDA-MB-231 cells. As to the method: Cell Culture. Cells were cultured at 37° C. and 5% CO2. MDA-MB-231 cells (HTB-26, ATCC) were cultured in RMPI 1640 medium with L-glutamine & 25 mM HEPES supplemented with 1× Antibiotic/Antimycotic solution (Corning) and 10% FBS. MCF-10A cells (CRL-10317, ATCC) were cultured in 1×DMEM/F12 50/50 with L-glutamine & 15 mM HEPES (Corning) supplemented with 20% FBS, 1× Antibiotic/Antimycotic solution, 20 ng/mL human epidermal growth factor (Pepro Tech, Inc.), 10 μg/mL insulin (Sigma-Aldrich), and […] hydrocortisone (Pfaltz & Bauer). For compound treatment, compound stocks either in DMSO or water were diluted in growth medium and added to cells for the indicated time. Plasmid DNA to overexpress pre-miR-21 in pcDNA 3.1 (Addgene 21114) or a plasmid DNA encoding the pre-miR-21 mutant (custom purchased from GenScript USA, Inc.) was transfected with jetPRIME per the manufacturer's protocol. After transfection, the medium was replaced with growth medium containing the compound of interest, prepared as described above. The RNase L-targeting siRNA or a control siRNA was transfected with Lipofectamine RNAiMAX reagent (Invitrogen) per the manufacturer's protocol.
as §1

Test [3] concerns RTK / phosphorylation of ERK (pERK). Nature of the test: Western blot of ERK phosphorylation (functional RTK inhibition) in MDA-MB-231 cells. The method, then: Western Blotting. MDA-MB-231 cells were plated in 6-well plates. […] The cells were harvested by trypsinization, and total protein was extracted with MPER (Mammalian Protein Extraction Reagent, Thermo Scientific) as previously described^6. Protein concentrations were determined by using a Pierce Micro BCA Protein Assay kit (Fisher Scientific). […] ImageJ software was used for quantification of the protein bands. […] In each case, the secondary antibody was diluted two times more than the primary antibody.
For orientation: Immunoblotting shows a protein as a band on a membrane.

Test [4] concerns pre-miR-21. Nature of the test: Cellular Chem-CLIP and C-Chem-CLIP to study occupancy of pre-miR-21. The following applies: increasing concentrations, 4 constant. The method, then: Cellular Chem-CLIP and C-Chem-CLIP to Study Occupancy of pre-miR-2L MDA-MB-231 cells in 100 mm dishes (~90% confluency) were treated with 4 or 5 for 6 h at 37° C. Then the cells were washed with 1×DPBS and cross-linked under 365 nm light for 10 min in ice cold 1×DPBS. The cells were harvested by scraping and pelleted by centrifugation. Total RNA was extracted by using the miRNeasy mini kit (Qiagen) per the manufacturer's protocol. Approximately 50 μg of total RNA was clicked to disulfide biotin azide as described in the “In Vitro Chem-CLIP and Competitive Chem-CLIP (C-Chem-CLIP)” section. Streptavidin beads (10 μL) were added, and the samples were incubated, with shaking, for 2 h at 37° C. The beads were then washed with 1× Wash Buffer (10 mM Tris-HCl, pH 7.0, 4 M NaCl, 1 mM EDTA) three times and then once with nanopure water. Bound RNAs were eluted from the beads by incubating with 200 μL of 1:1 TCEP (200 mM) pre-reduced with 600 mM of K2CO3 for 30 min at 37° C. The reaction was quenched by treatment with an equal volume of 400 mM of iodoacetamide for 30 min at room temperature. The supernatant was collected, and the beads were washed once with nanopure water: the water was added to the eluant. The combined eluant was cleaned up using RNAClean XP beads according to the manufacturer's protocol. The obtained RNA was then subjected to RT-qPCR. Enrichment of pre-miR-21 was calculated as previously described^6. Cellular C-Chem-CLIP was completed by pre-treating with 1 (1 or 5 μM) or 3 (1 or 5 μM) for 6 h, followed by dosing with 4 (5 μM) for 6 h. Sample preparation and data analysis were completed as described above for cellular Chem-CLIP studies.

In test [5] the test system is PTEN. Put plainly: PTEN luciferase assay. The conditions noted are these: MDA-MB-231. As to the method: PTEN Luciferase Assay. To study de-repression of PTEN, a luciferase-based cellular assay was performed as previously described^6. Briefly, MDA-MB-231 cells (~60% confluency) in 48-well plates were co-transfected with plasmids encoding Renilla luciferase (for normalization) and firefly luciferase fused to the 3′ UTR of PTEN by using Lipofectamine 2000 according to the manufacturer's protocol. After 5 h, the cells were treated with the compounds diluted in growth medium. Luciferase assay were then completed as previously described^4, 9.

In test [6] the test system is FLT3. Nature of the test: FLT3 degradation Western blot in MDA-MB-231 cells. The following applies: MDA-MB-231. As to the method: In each case, the secondary antibody was diluted two times more than the primary antibody.

What is called IC50 is the concentration needed to halve the response being measured. In the case of `Cc1ncsc1-c1ccc(CNC(=O)[C@@H]2C[C@@H](O)CN2C(=O)[C@@H](NC(=O)NCCOCCOCCOCCOCCC(=O)NCCN2CCN(c3ccc4[nH]c(-c5c(N)c6c(F)cccc6[nH]c5=O)nc4c3)CC2)C(C)(C)C)cc1` [Compound 3, Protac-Dovitinib], in test [1] (MDA-MB-231), the “fold increase in potency / miR-21 inhibitory activity compared with 1” value is “similar”. In addition, in test [1] (MDA-MB-231, RT-qPCR), the “mature miR-21 levels” value is “reduced”. For the same molecule, the pre-miR-21 levels result in test [2] (MDA-MB-231, RT-qPCR) is recorded as “increased; also recorded: boosted”. For the same molecule, the “competition of cleavage of pre-miR-21 by RIBOTAC 2” value in test [2] (constant concentration of 2 (1 μM), increasing competitor) is on record as “abated the cleavage”. Further, in test [3], the “fold increase of RTK inhibition relative to 1” value is 5 fold. Besides, half-maximal inhibition in test [3] (Homo sapiens, MDA-MB-231) (IC50) required 20 nM. In test [3] (Western blot), the “inhibition of ERK phosphorylation compared to 1” value is “more potent than 1”. Also, the “competition of pull-down of pre-miR-21 with 4” value in test [4] was “similarly diminished”. Also, the “PTEN expression (luciferase-based assay)” value in test [5] is reported as “derepressed”. In addition, the “FLT3 levels / degradation” value in test [6] is given as “low nanomolar activity; also recorded: induced degradation of FLT3 in a dose-dependent manner”.
